The target in assay [1] is T1, human PD-1 expressed on the surface of Jurkat cells (Homo sapiens, UniProt Q15116).
T1 construct: host or cells: Jurkat
Put plainly: Binding of PD-L1-Fc fusion protein to human PD-1 on Jurkat cells (flow cytometry). It counts as cell-based. The settings on record: varying peptide concentrations, 1 hour pre-incubation; increasing dose-response trend. How it is done: A human T cell line (Jurkat) stably expressing human PD-1 on its surface was purchased from Promega. This cell line was cultured using sterile techniques and maintained in log-phase growth. PD-1 protein expression levels were measured using an anti-human PD-1 antibody labeled with allophycocyanin (APC) for quality assessment.
For the experiment, 200 μL of 2.5*10^5 cells were plated in staining buffer into a microtiter plate. […] After another wash step, the cells were incubated with anti-human Fc labeled with AF647 for 30 minutes. After several washes, the mean fluorescence intensity due to PD-L1-Fc binding to PD-1 was measured by flow cytometry.
For orientation: In flow cytometry, cells or beads pass a laser one at a time.

The target in the next assay is T2, mouse PD-1 (Mus musculus, UniProt Q02242).
T2 sequence (Q02242 25-288): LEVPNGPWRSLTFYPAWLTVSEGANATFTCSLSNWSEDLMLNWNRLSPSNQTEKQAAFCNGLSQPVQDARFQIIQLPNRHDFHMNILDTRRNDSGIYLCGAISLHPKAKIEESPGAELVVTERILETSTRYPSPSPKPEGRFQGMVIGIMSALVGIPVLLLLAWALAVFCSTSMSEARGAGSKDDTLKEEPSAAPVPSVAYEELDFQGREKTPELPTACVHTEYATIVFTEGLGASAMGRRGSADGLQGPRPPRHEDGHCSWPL
Kind of assay: BIACORE binding of peptide LD01 to mouse PD-1. The settings on record: immobilized peptide; 25° C. How it is done: (§1) BIACORE® assays were carried out using a BIACORE® T-200 at 25° C. The assay and regeneration buffers contained 10 mM HEPES (pH 7.4), 150 mM NaCl, 3 mM EDTA, and 0.05% P20. The immobilization buffer was 10 mM sodium acetate, pH 5.0. The flow rate used for immobilizing the ligand was 5 μl/min. The flow rate for kinetics analysis was 30 μl/min.
(§2) Scouting. […] The un-occupied sites were blocked with 1M ethanol amine. Scouting was performed at a single analyte concentration of 290 nM to confirm yes/no binding. Flow cell 1 was kept blank and used for reference subtraction. Binding of analyte to the ligand was monitored in real time.
(§3) Full Kinetics. Based on the scouting results, full kinetics was performed at analyte concentration of 100 nM, followed by serial dilution to 50, 25, 12.5, 6.25, 3.125, 1.562 and 0 nM concentration or as indicated. KD was determined from the observed kon (on rate) and koff (off rate) or by steady state equilibrium kinetics for the interactions with fast off rate.
(§4) Chi square (χ^2) analysis was carried out between the actual Sensorgram and the sensorgram generated from the BIAnalysis software to determine the accuracy of the analysis. χ^2 value within 1-2 is considered significant (accurate) and below 1 is highly significant (highly accurate).
For orientation: In SPR one partner is held on a chip, and binding of the other changes the refractive index at the surface.

Assay [2] deals with CD1 mice with intra-abdominal peritonitis induced by cecal ligation and puncture (CLP). Kind of assay: Mouse sepsis model (CLP), survival. It counts as in vivo. The settings on record: 200 μg intraperitoneally at 6, 24, and 48 hours after CLP surgery. An excerpt:
CD1 mice were anesthetized, a midline abdominal incision made, the cecum was ligated and punctured, and then the incision closed.

For assay [3], the target named is T3, human PD-1 (Homo sapiens, UniProt Q15116). Kind of assay: BIACORE binding of peptide LD01 to human PD-1. Particulars: immobilized peptide; single analyte concentration 290 nM; 25° C. The method, then: as §1, §2, §3, §4
Target sequence in this assay (Q15116 25-288): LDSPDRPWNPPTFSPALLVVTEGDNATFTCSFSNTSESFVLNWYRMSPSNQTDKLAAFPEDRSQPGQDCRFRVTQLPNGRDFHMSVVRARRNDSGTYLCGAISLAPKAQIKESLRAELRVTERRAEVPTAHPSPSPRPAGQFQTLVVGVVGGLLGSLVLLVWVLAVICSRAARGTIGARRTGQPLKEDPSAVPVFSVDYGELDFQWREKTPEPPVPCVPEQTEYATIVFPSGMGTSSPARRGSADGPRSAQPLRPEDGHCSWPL
Another assay concerns IFNγ-secreting T cells. Kind of assay: Mouse sepsis model (CLP), splenic IFNγ-secreting T cells by ELISPOT. The format is in vivo, mice. Particulars: treated at 6, 24, 48, 72 and 96 hours after CLP, anti-CD3 and anti-CD28 stimulation. How it is done: Twenty-four hours later, mice were euthanized, individual spleens were removed, and the number of splenic IFNγ-secreting T cells were determined by ELISPOT assay. For the ELISPOT assay splenocytes were stimulated via anti-CD3 and anti-CD28. Shown in FIG. 14 is the number of IFNγ-secreting T cells per 2×10^5 splenocytes.

The next assay has as its system B16-F-10 mouse melanoma. Kind of assay: B16-F10 mouse melanoma lung metastasis model. The format is in vivo, C57/BL6 mice. Particulars: for number of tumor nodules, difference versus no treatment saline (one-way ANOVA, p<0.05) / reduction of lung metastasis (tumor nodules) relative to no treatment saline: Table 1B study, i.v., days 1, 2, 4, 6, 8, 12.
The test system of a further assay is mouse splenocytes. Put plainly: Anti-CD3-stimulated mouse splenocyte proliferation (CFSE). It counts as cell-based. Particulars: 1, 5, 25 μM peptide; 1 μg/mL anti-CD3; presence and absence of exogenously added PD-L1-Fc; 3 days. How it is done: PD-L1-Fc fusion protein is hypothesized to reduce anti-CD3 induced splenocyte proliferation.
Carboxyfluorescein diacetate succinimidyl ester (CFSE)-labeled mouse splenocytes (400,000 cells, 5 μM CFSE) were stimulated using 1 μg/mL anti-CD3 antibody and varying levels of PD-L1-Fc or an irrelevant control Fc. […] The CFSE dilution profiles were analyzed by flow cytometry after 3 days of treatment.

In assay [4] the test system is CSP-specific, IFNγ-secreting CD8+ T cells. Put plainly: Immunogenicity of AdPyCSP malaria vaccine (ELISPOT). The format is in vivo, Balb/c mice. Particulars: for increase in number of CSP-specific, IFNγ-secreting CD8 T cells relative to AdPyCSP alone: 200 μg i.p. days 0, 1, 3, 5, 7, day 12. How it is done:
Balb/c mice were immunized intramuscularly with 10^10 virus particles of a recombinant replication defective adenovirus expressing the Plasmodium yoelli circumsporozoite protein (AdPyCSP).
The negative control peptide used in this study was the ovalbumin (OVA) peptide ([…], SEQ ID NO:34). At day 12 post immunization, mice were euthanized, individual spleens removed, and the number of splenic CSP-specific, IFNγ-secreting CD8^+ T cells were determined by ELISPOT assay. For the ELISPOT assay splenocytes were stimulated with the peptide […] (SEQ ID NO:35), an H-2Kd-restricted CD8^+ T cell epitope of PyCSP.
Peptides LD01, LD10da, and LD16da were tested as described above, this time using peptide LD12 (cohort 2) as the negative control. Test sample, route of treatment and treatment days are detailed in Table 2B.
At day 12 post immunization, mice were euthanized, individual spleens removed, and the number of splenic CSP-specific, IFNγ-secreting CD8^+ T cells were determined by ELISPOT assay. For the ELISPOT assay splenocytes were stimulated with the peptide […] (SEQ ID NO:35), an H-2Kd-restricted CD8^+ T cell epitope of PyCSP.

For another assay, the system named is human PBMCs. The format is cell-based. Particulars: 72 hours.
In assay [5] the target is T3, human PD-1. Put plainly: Binding of PD-L1-Fc to PD-1 in a cell-free plate assay. Particulars: plates coated with peptide; 1 μg/mL PD-1. The method, then:
The plates were washed and blocked with 1% BSA for 1 hour at room temperature. The plates were then incubated with 100 μL of 1 μg/mL PD-1 at room temperature for 1 hour. The plates were again washed and incubated with PD-L1 at room temperature for 1 hour. After another round of washes, the plates were incubated with anti-human IgG-HRP. After incubation for 1 hour and washes, the HRP was detected by incubating with TMB substrate, and the OD were read on a microplate reader.
Target sequence in this assay (Q15116 25-167 limits assumed): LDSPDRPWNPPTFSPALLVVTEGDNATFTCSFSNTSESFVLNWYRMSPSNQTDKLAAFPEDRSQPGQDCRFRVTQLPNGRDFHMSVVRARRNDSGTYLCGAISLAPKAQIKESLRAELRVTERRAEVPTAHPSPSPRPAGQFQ
Target sequence in this assay (Q9NZQ7 19-238 partner limits assumed): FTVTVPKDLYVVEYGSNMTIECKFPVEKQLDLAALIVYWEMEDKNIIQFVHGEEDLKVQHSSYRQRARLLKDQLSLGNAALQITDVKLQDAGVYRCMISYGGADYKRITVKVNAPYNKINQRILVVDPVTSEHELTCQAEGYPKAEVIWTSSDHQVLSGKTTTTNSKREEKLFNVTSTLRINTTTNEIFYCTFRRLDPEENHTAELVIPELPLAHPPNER

Ends that are not written are not given here.

T1 sequence (Q15116 25-288): as the sequence (Q15116 25-288) above

For the compound `CC[C@H](C)[C@H](NC(=O)[C@H](CCC(N)=O)NC(=O)CNC(=O)[C@@H](NC(=O)[C@H](CO)NC(=O)[C@@H](NC(=O)[C@H](CCCNC(=N)N)NC(=O)[C@H](CCCNC(=N)N)NC(=O)[C@@H](N)CS)[C@@H](C)O)[C@@H](C)O)C(=O)N[C@@H](CO)C(=O)N[C@H](C(=O)N[C@@H](CC(C)C)C(=O)N[C@@H](CCCNC(=N)N)C(=O)N[C@H](C(=O)N[C@@H](CC(N)=O)C(=O)N[C@H](C(=O)N[C@H](C(=O)N[C@@H](C)C(=O)N1CCC[C@H]1C(=O)N[C@@H](CC(C)C)C(=O)N[C@@H](CO)C(=O)N[C@@H](CCC(N)=O)C(N)=O)[C@@H](C)O)[C@@H](C)CC)C(C)C)[C@@H](C)O` [LD01], the “effect on binding of human PD-L1-Fc fusion protein to human PD-1-expressing Jurkat cells” value in assay [1] was “enhances binding”. The “binding to mouse PD-1 (BIACORE, single concentration and kinetics)” value at mouse PD-1 was “binds”. This compound returned a survival rate in [2] of 70%. Also, the “binding to human PD-1 (BIACORE, yes/no)” value on human PD-1 [3] is on record as “binds”. Moreover, the “number of splenic IFNγ-secreting T cells relative to the control peptide” value in the assay with IFNγ-secreting T cells is reported as “increase”. Besides, in the assay with B16-F-10 mouse melanoma (Table 1A study, Cohorts 3 and 4 (20 μg and 200 μg i.v., days 1, 2, 4, 6, 8, 12), day 14), the “reduction of lung metastasis (tumor nodules) relative to no treatment” value is listed as approximately 50%. Besides, the “number of tumor nodules, difference versus no treatment saline (one-way ANOVA, p<0.05)” value in the assay with B16-F-10 mouse melanoma is reported as “Significant differences”. Also, the “reduction of lung metastasis (tumor nodules) relative to no treatment saline” value with B16-F-10 mouse melanoma is given as approximately 30%. The “effect on proliferation of anti-CD3 stimulated mouse splenocytes” value with mouse splenocytes is listed as “enhances proliferation”. The “immunogenicity compared with anti-PD-1 or -PD-L1 antibody (Cohort 4 and 5)” value in assay [4] (Table 2A study, 200 μg i.p.) is “slightly above”. In addition, the “increase in number of CSP-specific, IFNγ-secreting CD8 T cells relative to AdPyCSP alone” value in assay [4] (Table 2A study) was approximately 2 fold; in assay [4] (Table 2B study), approximately 1.5 fold. In addition, the “increase in IFN-γ secretion relative to SEB alone” value in the assay with human PBMCs was 4 fold. Further, on human PD-1 [5], the “effect on binding of human PD-L1-Fc fusion protein to human PD-1 in a cell-free assay” value is reported as “enhances binding”.

RRTSPGQISTLRVNITAPLSQ [LD02] displayed a survival rate in assay [2] of 30%.

With `CC[C@H](C)[C@H](NC(=O)[C@H](CCC(N)=O)NC(=O)CNC(=O)[C@@H](NC(=O)[C@H](N)CO)[C@@H](C)O)C(=O)N[C@@H](CO)C(=O)N[C@H](C(=O)N[C@@H](CC(C)C)C(=O)N[C@@H](CCCNC(=N)N)C(=O)N[C@H](C(=O)N[C@@H](CC(N)=O)C(=O)N[C@H](C(=O)N[C@H](C(=O)N[C@@H](C)C(=O)N1CCC[C@H]1C(=O)N[C@@H](CC(C)C)C(=O)N[C@@H](CO)C(=O)N[C@@H](CCC(N)=O)C(N)=O)[C@@H](C)O)[C@@H](C)CC)C(C)C)[C@@H](C)O` [LD10da], the “immunogenicity compared with α-PD-1 mAb (Cohort 6)” value in [4] (Table 2B study, 200 μg i.p.) is reported as “slightly above”.

Take `CC[C@H](C)[C@H](NC(=O)[C@H](CCC(N)=O)NC(=O)CNC(=O)[C@@H](NC(=O)[C@H](CO)NC(=O)[C@H](N)[C@H](C)O)[C@@H](C)O)C(=O)N[C@@H](CO)C(=O)N[C@H](C(=O)N[C@@H](CC(C)C)C(=O)N[C@@H](CCCNC(=N)N)C(=O)N[C@H](C(=O)N[C@@H](CC(N)=O)C(=O)N[C@H](C(=O)N[C@H](C(=O)N[C@@H](C)C(=O)N1CCC[C@H]1C(=O)N[C@@H](CC(C)C)C(=O)N[C@@H](CO)C(=O)N[C@@H](CCC(N)=O)C(N)=O)[C@@H](C)O)[C@@H](C)CC)C(C)C)[C@@H](C)O` [LD01 TQ19 da/LD16 da]: in the assay on B16-F-10 mouse melanoma, the “number of tumor nodules, difference versus no treatment saline (one-way ANOVA, p<0.05)” value is “Significant differences” and the “reduction of lung metastasis (tumor nodules) relative to no treatment saline” value is recorded as approximately 30%.
